In article PMC4052546 (Pharmaceuticals, 2011):
Where two headings read alike, the source gives them in different places.

Assays:
[1] = Pharmacokinetics of AS and DHA in rat plasma after single and multiple intravenous AS injections (automated blood sampler, LC-MS/MS); format: in vivo, Sprague-Dawley rats; conditions: for Cmax / MRT / Tmax / clearance / AUC(0-t) / AUC / half-life / average plasma concentration over 0–72 h (Cav = AUC0–72 h/72): male, Sprague-Dawley, rat, plasma, iv; for AUC(0-t): read-out: AUC0–3 h; for AUC: read-out: AUCinfininty;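 for all read-outs here: blood drawn through a jugular vein catheter by an automated sampling system, plasma drug levels measured by LC-MS/MS with positive electrospray ionization against standard curves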
Protocol: The Culex ABS is a blood sampling and metabolism monitoring machine, which is controlled by its own internal computer. We were successful in evaluating PK for long-term periods by using this system. After jugular vein cannulation, study animals were individually placed in the system, which allowed for a micro-pump to infuse heparinized-saline (10 unit heparin/mL saline) at a rate of 1-2 μL/min to prevent coagulation within the catheter. Culex samples were obtained with precise blood volumes from the study animals and the total volume taken was less than 6% per day and 14% during the entire study period. Blood samples were maintained at 3 °C using Culex's temperature-controlled fractional collector. Plasma was separated from the blood samples and processed for drug extraction.
(§1) Three samples were collected during each phase of absorption, distribution, or elimination for full PK analysis on the first and last dosing days following intravenous bonus injection. Additionally, trough levels (pre-dose) samples were collected in between each dose to follow drug accumulation and a series PK approach (18 samples per animal) was used. Thus, each animal was dosed and plasma samples were obtained for up to three days. A total of 18 (0, 5, 15, 30, 45 min, 1, 2, 3, 6, 24.25, 48.167, 48.25, 48.5, 48.75, 49, 50, 51, and 54 h) samples were collected into cooled vials. 50 μL of blood per sample was collected pre-dosing and after dosing and 100 μL per sample was taken from 0.08 h to 56 h after dosing. During collection, blood samples were added into the vials, which contained dried heparin (50 units) on the bottom of each vial. Thus, a total blood volume of 1.75 mL was obtained from each rat during the three day treatment period (0.85 mL of blood on day 0, 0.1 mL on day 1, and 0.9 mL on day 2), which is 9.3% of the animals total blood volume. Subjects for replicated crossover design were followed FDA recommendation [22] with a 2 week wash out period. During wash-out period, if the catheter was blocked up by any reasons the jugular vein tubes were infused or replaced.
The samples were vortexed vigorously (set at 10 or max setting) for 8–10 sec followed by a 10,000 × g centrifugation at 4 °C for 10 min. Aliquots (approximately 250 μL ea) of the undisturbed supernatants were transferred into a 96-well plate for LC-MS/MS analyses. […] Drugs were chromatographically separated using an acetonitrile/ammonium acetate gradient through a Waters XTerra C18 column (2.1 × 50 mm, 3.5 μm particle size) and corresponding pre-column. Quantification was done using the most abundant daughter ions following positive electrospray ionization. Chromatograms were analyzed using Xcalibur mass spectrometry software. The responses-concentrations standard curves were fitted and weighted.
The area under the curve (AUC) was determined by the linear trapezoidal rule with extrapolation to infinity based on the concentration of the last time point divided by the terminal rate constant. The bioequivalence (BE) evaluation of the two formulations were analyzed by using BE software (WinNonlin 5.2, Pharsight Co. Mountain View, CA. USA) in rats for a NDA application.

[2] = Hematology and recovery study after multiple intravenous AS; format: in vivo, rats
Protocol: At 24 and 96 h after the final dose of Chinese and WRAIR intravenous AS, male and female animals were anesthetized by isoflurane inhalation anesthesia (Abbott Labs, North Chicago, IL, USA) delivered by a small-animal anesthesia system (Euthanex Corp, Palmer Park, PA, USA). Each animal was initially placed in a chamber primed with 5% isoflurane, and upon induction, maintained in a non-rebreathing mask at 2% isoflurane delivered with […]. […] One mL of the blood sample was placed in K3 EDTA tubes (Beckton Dickinson, Franklin Lakes, NJ, USA) for CBC analysis using the ABX Pentra 60 hematology analyzer (ABX diagnostics, Irvine, CA, USA). Another 0.7 mL of blood was placed in serum separator tubes (Becton Dickinson, Franklin Lakes, NJ, USA) for biochemistry analysis using commercial assay kits on the Vitros 250 Chemistry analyzer (Johnson & Johnson, Rochester, NY, USA). Reticulocyte analysis was performed utilizing light microscopy. After sample collection, rats were euthanized by cervical dislocation.

[3] = rat, in vivo
From the text: An automated blood sampler (Culex ABS, Bioanalytical Systems, Inc. West Lafayette, IN) was used for rat blood sample collection.
as §1
The area under the curve (AUC) was determined by the linear trapezoidal rule with extrapolation to infinity based on the concentration of the last time point divided by the terminal rate constant.

malaria parasites = conditions: incubation in vitro; cited from earlier work
parasitemia = test system: parasitemia; design: method as in earlier work; conditions: intravenous AS, clinical trials; cited from earlier work
[4] = cited from earlier work
[5] = Chinese formulation (AS/NaHCO3), 20 mg/kg i.v. daily for 3 days, male rats, Period 1, Day 3
[6] = Chinese formulation (AS/NaHCO3), 20 mg/kg i.v. daily for 3 days, male rats, Period 2, Day 3
[7] = WRAIR formulation (AS/0.3M PBS Buffer), 20 mg/kg i.v. daily for 3 days, male rats, Period 2, Day 3
[8] = 20 mg/kg, Chinese formulation (AS/NaHCO3), 20 mg/kg i.v. daily for 3 days, male rats, Period 1, Day 1
[9] = 20 mg/kg, Chinese formulation (AS/NaHCO3), 20 mg/kg i.v. daily for 3 days, male rats, Period 1, Day 3
[10] = 20 mg/kg, Chinese formulation (AS/NaHCO3), 20 mg/kg i.v. daily for 3 days, male rats, Period 2, Day 1
[11] = 20 mg/kg, Chinese formulation (AS/NaHCO3), 20 mg/kg i.v. daily for 3 days, male rats, Period 2, Day 3
[12] = 20 mg/kg, WRAIR formulation (AS/0.3M PBS Buffer), 20 mg/kg i.v. daily for 3 days, male rats, Period 1, Day 1
[13] = 20 mg/kg, WRAIR formulation (AS/0.3M PBS Buffer), 20 mg/kg i.v. daily for 3 days, male rats, Period 1, Day 3
[14] = 20 mg/kg, WRAIR formulation (AS/0.3M PBS Buffer), 20 mg/kg i.v. daily for 3 days, male rats, Period 2, Day 1
[15] = 20 mg/kg, WRAIR formulation (AS/0.3M PBS Buffer), 20 mg/kg i.v. daily for 3 days, male rats, Period 2, Day 3
[16] = male, Sprague-Dawley, iv, 20 mg/kg, 1 day

## C[C@H]1[C@H](OC(=O)CCC(=O)O)O[C@@H]2O[C@@]3(C)CC[C@H]4[C@H](C)CC[C@@H]1[C@@]24OO3 [AS, artesunate]
[1]; Chinese formulation (AS/NaHCO3), 20 mg/kg i.v. daily for 3 days, male rats, Period 1, Day 1
  AUC0–3 h: 867.5 ± 136.7 ng·h/mL
[1]; [5]
  AUC0–3 h: 614.2 ± 191.8 ng·h/mL
  Cmin: 4.35 ± 2.54 ng/mL
[1]; Chinese formulation (AS/NaHCO3), 20 mg/kg i.v. daily for 3 days, male rats, Period 2, Day 1
  AUC0–3 h: 932.6 ± 144.2 ng·h/mL
[1]; [6]
  AUC0–3 h: 665.4 ± 236.3 ng·h/mL
  Cmin: 3.35 ± 2.11 ng/mL
  Degree of Fluctuation = 100% × (Cmax − Cmin)/Cav: 1192 ± 219%
[1]; Chinese formulation, 20 mg/kg i.v., rats, period 1, day 1
  time at which Cmax was measured: 5 min
[1]; Chinese formulation, 20 mg/kg i.v., rats, period 2, day 1
  time at which Cmax was measured: 5 min
[1]; Chinese formulation, 20 mg/kg i.v., rats, period 2, day 3
  time at which Cmax was observed: 5 min
[1]; WRAIR formulation (AS/0.3M PBS Buffer), 20 mg/kg i.v. daily for 3 days, male rats, Period 1, Day 1, 20 mg/kg
  AUC0–3 h: 879.4 ± 167.4 ng·h/mL
[1]; WRAIR formulation (AS/0.3M PBS Buffer), 20 mg/kg i.v. daily for 3 days, male rats, Period 1, Day 3
  Cmin: 3.56 ± 0.85 ng/mL
[1]; WRAIR formulation (AS/0.3M PBS Buffer), 20 mg/kg i.v. daily for 3 days, male rats, Period 1, Day 3, 20 mg/kg
  AUC0–3 h: 611.1 ± 162.1 ng·h/mL
[1]; [7]
  Cmin: 3.87 ± 1.57 ng/mL
  Degree of Fluctuation = 100% X (Cmax − Cmin)/Cav: 1218 ± 172%
[1]; WRAIR formulation (AS/0.3M PBS Buffer), 20 mg/kg i.v. daily for 3 days, male rats, Period 2, Day 3, 20 mg/kg
  AUC0–3 h: 669.7 ± 159.3 ng·h/mL
[1]; WRAIR formulation, 20 mg/kg i.v., rats, period 1, day 1
  time at which Cmax was measured: 5 min
[1]; i.v. treatments in rats
  AS concentration on day 3 compared to day 1: one-third lower
[1]; [8]
  Cmax: 4300 ng/mL
  MRT: 15.6 ± 2.4 min
  Tmax: 4.98 min
  clearance: 380 ± 54.2 mL/min/kg
  AUC(0-t): 868 ng·h/mL
  AUC: 872 ± 138 ng·h/mL
[1]; 20 mg/kg, Chinese formulation (AS/NaHCO3), 20 mg/kg i.v. daily for 3 days, male rats, Period 1, Day 1, read-out: t1/2 distribution (converted)
  half-life: 3.6 ± 0.6 min
[1]; 20 mg/kg, Chinese formulation (AS/NaHCO3), 20 mg/kg i.v. daily for 3 days, male rats, Period 1, Day 1, read-out: t1/2 elimination (converted)
  half-life: 24 ± 4.2 min
[1]; [9]
  Cmax: 2460 ng/mL
  MRT: 17.4 ± 6 min
  Tmax: 4.98 min
  average plasma concentration over 0–72 h (Cav = AUC0–72 h/72): 204 ng·h/mL
  clearance: 570 ± 170 mL/min/kg
  AUC(0-t): 614 ng·h/mL
  AUC: 617 ± 193 ng·h/mL
[1]; 20 mg/kg, Chinese formulation (AS/NaHCO3), 20 mg/kg i.v. daily for 3 days, male rats, Period 1, Day 3, read-out: t1/2 distribution (converted)
  half-life: 6 ± 1.8 min
[1]; 20 mg/kg, Chinese formulation (AS/NaHCO3), 20 mg/kg i.v. daily for 3 days, male rats, Period 1, Day 3, read-out: t1/2 elimination (converted)
  half-life: 24.6 ± 6.6 min
[1]; [10]
  Cmax: 4140 ng/mL
  MRT: 15.6 ± 3 min
  Tmax: 4.98 min
  clearance: 360 ± 56.2 mL/min/kg
  AUC(0-t): 932 ng·h/mL
  AUC: 935 ± 144 ng·h/mL
[1]; 20 mg/kg, Chinese formulation (AS/NaHCO3), 20 mg/kg i.v. daily for 3 days, male rats, Period 2, Day 1, read-out: t1/2 distribution (converted)
  half-life: 4.8 ± 1.8 min
[1]; 20 mg/kg, Chinese formulation (AS/NaHCO3), 20 mg/kg i.v. daily for 3 days, male rats, Period 2, Day 1, read-out: t1/2 elimination (converted)
  half-life: 25.8 ± 4.2 min
[1]; [11]
  Cmax: 2540 ng/mL
  MRT: 15.6 ± 5.4 min
  Tmax: 4.98 min
  clearance: 562 ± 240 mL/min/kg
  AUC(0-t): 665 ng·h/mL
  AUC: 667 ± 238 ng·h/mL
[1]; 20 mg/kg, Chinese formulation (AS/NaHCO3), 20 mg/kg i.v. daily for 3 days, male rats, Period 2, Day 3, read-out: t1/2 distribution (converted)
  half-life: 7.2 ± 1.8 min
[1]; 20 mg/kg, Chinese formulation (AS/NaHCO3), 20 mg/kg i.v. daily for 3 days, male rats, Period 2, Day 3, read-out: t1/2 elimination (converted)
  half-life: 23.4 ± 7.8 min
[1]; [12]
  Cmax: 4030 ng/mL
  MRT: 18 ± 3.6 min
  Tmax: 4.98 min
  clearance: 378 ± 67.2 mL/min/kg
  AUC(0-t): 879 ng·h/mL
  AUC: 882 ± 167 ng·h/mL
[1]; 20 mg/kg, WRAIR formulation (AS/0.3M PBS Buffer), 20 mg/kg i.v. daily for 3 days, male rats, Period 1, Day 1, read-out: t1/2 distribution (converted)
  half-life: 4.8 ± 1.2 min
[1]; 20 mg/kg, WRAIR formulation (AS/0.3M PBS Buffer), 20 mg/kg i.v. daily for 3 days, male rats, Period 1, Day 1, read-out: t1/2 elimination (converted)
  half-life: 24.6 ± 1.8 min
[1]; [13]
  Cmax: 2430 ng/mL
  MRT: 16.2 ± 5.4 min
  Tmax: 4.98 min
  average plasma concentration over 0–72 h (Cav = AUC0–72 h/72): 204 ng·h/mL
  clearance: 559 ± 118 mL/min/kg
  AUC(0-t): 611 ng·h/mL
  AUC: 613 ± 163 ng·h/mL
[1]; 20 mg/kg, WRAIR formulation (AS/0.3M PBS Buffer), 20 mg/kg i.v. daily for 3 days, male rats, Period 1, Day 3, read-out: t1/2 distribution (converted)
  half-life: 6 ± 2.4 min
[1]; 20 mg/kg, WRAIR formulation (AS/0.3M PBS Buffer), 20 mg/kg i.v. daily for 3 days, male rats, Period 1, Day 3, read-out: t1/2 elimination (converted)
  half-life: 28.2 ± 6 min
[1]; [14]
  Cmax: 4210 ng/mL
  MRT: 16.8 ± 2.4 min
  Tmax: 4.98 min
  clearance: 387 ± 52.1 mL/min/kg
[1]; 20 mg/kg, WRAIR formulation (AS/0.3M PBS Buffer), 20 mg/kg i.v. daily for 3 days, male rats, Period 2, Day 1, read-out: t1/2 distribution (converted)
  half-life: 4.8 ± 0.6 min
[1]; 20 mg/kg, WRAIR formulation (AS/0.3M PBS Buffer), 20 mg/kg i.v. daily for 3 days, male rats, Period 2, Day 1, read-out: t1/2 elimination (converted)
  half-life: 26.4 ± 3.6 min
[1]; [15]
  Cmax: 2710 ng/mL
  MRT: 16.2 ± 3.6 min
  Tmax: 4.98 min
  clearance: 517 ± 162 mL/min/kg
  AUC(0-t): 670 ng·h/mL
  AUC: 673 ± 160 ng·h/mL
[1]; 20 mg/kg, WRAIR formulation (AS/0.3M PBS Buffer), 20 mg/kg i.v. daily for 3 days, male rats, Period 2, Day 3, read-out: t1/2 distribution (converted)
  half-life: 8.4 ± 1.2 min
[1]; 20 mg/kg, WRAIR formulation (AS/0.3M PBS Buffer), 20 mg/kg i.v. daily for 3 days, male rats, Period 2, Day 3, read-out: t1/2 elimination (converted)
  half-life: 32.4 ± 11.4 min
[2]; 20 mg/kg AS intravenously, male and female rats, both formulations
  total reticulocyte counts: significant reductions
[2]; 20 mg/kg AS, 3 days post last dosing
  all hematological parameters after recovery period: reverted to normal
[3]; [16]
  90% CI for T/R, Lower, AUCD1: 88.72%
  90% CI for T/R, Upper, AUCD1: 111.28%
[3]
  BE (bioequivalence), AUCD1: Yes
  BE (bioequivalence), Cmax D1: Yes
[3]; iv
  90% CI between the two intravenous formulations, AUC0–3 h: 88.72–111.28%
  90% CI for the difference between the two i.v. formulations, AUC1–3D: 87.65–112.35%
  90% CI of the difference between the two intravenous formulations, AUCD3: 82.30–117.69%
Malaria parasites
  time to completely inhibit parasite growth: 2 to 4 h
parasitemia
  time for parasitemia to fall by half: 3.18 h
[4]
  elimination half-life (t1/2): 2 to 18 min
[4]; multiple oral treatments in malaria patients and healthy subjects
  Cmax and AUC values on the last dose day compared to the first day: reduced by one-third to one-seventh
